This is an account of results in ChEMBL document CHEMBL5385934, “Identification of two novel chemical classes of Autotaxin (ATX) inhibitors using Enalos Asclepios KNIME nodes” (Bioorg Med Chem Lett, 2024).

In test [1] the target is T1, Autotaxin (Homo sapiens, UniProt Q13822). Nature of the test: Inhibition of human ATX at 100 uM by Amplex Red assay relative to control.
Test [2] concerns the target T1, Autotaxin. Put plainly: Inhibition of human ATX by Amplex Red assay.
In test [3] the target is T1, Autotaxin. Nature of the test: Inhibition of human ATX assessed as decrease in LPC hydrolysis by Amplex Red assay.
Test [4] deals with T1, Autotaxin. Nature of the test: Inhibition of human ATX assessed as decrease in LPC hydrolysis upto 2.5 uM by Amplex Red assay.

Activity calls are given as the source filed them. No cut-off for these calls is given here.

Regarding `Cc1nc(Nc2cccc(C3CCCN3C(=O)c3n[nH]c4c3CCCC4)n2)sc1C` (stereo not drawn), the inhibition (as a rule, how much of the control response was suppressed) at Autotaxin [1] came to 85%. Besides, half-maximal inhibition at Autotaxin [2] (IC50) required 2.53 µM. In addition, the inhibition result on Autotaxin [3] and at Autotaxin [4] was “Active” in each case.

In the case of `O=C(CSc1nnc(-c2ccco2)o1)N1c2ccccc2Sc2ccc(Cl)cc21`, the inhibition on Autotaxin [1] was 87%. Further, 9.41 µM corresponded to half-maximal inhibition at Autotaxin [2] (IC50). In addition, the inhibition entry at Autotaxin [3] and on Autotaxin [4] was “Active” each time.
